Laboratory results: ChEMBL document CHEMBL1201862, “PubChem BioAssay data set” (2004)
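Dose response: 5 concentrations. Exposure: 48 h. Format: 96-well plates. Endpoint: linear interpolation; highest concentration if not reached. Here, GI50 denotes the concentration required for 50% inhibition of growth.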 Activity calls are given as the source filed them. Rule as the data show it: active = GI50 up to about 1.1 µM and inactive = higher.

How the values were obtained:
Assay in all cases: growth of human tumour cells (NCI), 48 h
[1] = test system: HT-29
[2] = test system: SF-268
[3] = test system: IGROV-1
[4] = test system: HOP-62
[5] = test system: SF-539
[6] = test system: COLO 205
[7] = test system: SK-MEL-5
[8] = test system: M14
[9] = test system: SW-620
[10] = test system: TK-10
[11] = test system: MOLT-4
[12] = test system: CCRF-CEM
[13] = test system: BT-549
[14] = test system: NCI-H226
[15] = test system: A549
[16] = test system: PC-3
[17] = test system: NCI-H460
[18] = test system: SN12C
[19] = test system: OVCAR-3
[20] = test system: A498

Cn1c(=O)cc(N2CCCC2)[nH]c1=O
GI50 [1]: > 100 µM (inactive)
GI50 [2]: 74.1 µM (inactive)
GI50 [3]: > 100 µM (inactive)
GI50 [4]: > 100 µM (inactive)
GI50 [5]: > 100 µM (inactive)
GI50 [6]: > 100 µM (inactive)
GI50 [7]: > 100 µM (inactive)
GI50 [8]: > 100 µM (inactive)
GI50 [9]: > 100 µM (inactive)
GI50 [10]: > 100 µM (inactive)
GI50 [11]: > 100 µM (inactive)
GI50 [12]: > 100 µM (inactive)
GI50 [13]: > 100 µM (inactive)
GI50 [14]: > 100 µM (inactive)
GI50 [15]: > 100 µM (inactive)
GI50 [16]: > 100 µM (inactive)
GI50 [17]: > 100 µM (inactive)
GI50 [18]: > 100 µM (inactive)

COc1ccc(C2C3CCc4ccccc4C3=NN2S(=O)(=O)c2cccc(C(=O)O)c2OC)cc1 (centres undefined)
GI50 [1]: 5 µM (inactive)
GI50 [2]: 14 µM (inactive)
GI50 [3]: 1.09 µM (active)
GI50 [4]: 21 µM (inactive)
GI50 [5]: 6.21 µM (inactive)
GI50 [6]: 1.84 µM (inactive)
GI50 [7]: 6.62 µM (inactive)
GI50 [8]: 15.8 µM (inactive)
GI50 [9]: 6.98 µM (inactive)
GI50 [19]: 5.35 µM (inactive)
GI50 [10]: 22.9 µM (inactive)
GI50 [11]: 9.02 µM (inactive)
GI50 [12]: 10.4 µM (inactive)
GI50 [13]: 33.3 µM (inactive)
GI50 [14]: 19.8 µM (inactive)
GI50 [15]: 10.1 µM (inactive)
GI50 [16]: 9.02 µM (inactive)
GI50 [17]: 5.66 µM (inactive)
GI50 [18]: 27.3 µM (inactive)

CCOC(=O)C1(C(=O)OCC)CC(=O)[C@@]2(C1)OCC[C@H]1OC(=O)C[C@H]12
GI50 [1]: > 100 µM (inactive)
GI50 [2]: > 100 µM (inactive)
GI50 [20]: > 100 µM (inactive)
GI50 [3]: > 100 µM (inactive)
GI50 [4]: > 100 µM (inactive)
GI50 [5]: > 100 µM (inactive)
GI50 [6]: > 100 µM (inactive)
GI50 [7]: > 100 µM (inactive)
GI50 [8]: > 100 µM (inactive)
GI50 [9]: > 100 µM (inactive)
GI50 [19]: > 100 µM (inactive)
GI50 [10]: > 100 µM (inactive)
GI50 [11]: > 100 µM (inactive)
GI50 [12]: > 100 µM (inactive)
GI50 [13]: > 100 µM (inactive)
GI50 [15]: > 100 µM (inactive)
GI50 [16]: > 100 µM (inactive)
GI50 [17]: > 100 µM (inactive)
GI50 [18]: > 100 µM (inactive)

OC[C@@H](O)[C@H](O)[C@@H](O)/C=N/Nc1ccc(Cl)nn1
GI50 [1]: > 100 µM (inactive)
GI50 [2]: > 100 µM (inactive)
GI50 [20]: > 100 µM (inactive)
GI50 [3]: > 100 µM (inactive)
GI50 [4]: > 100 µM (inactive)
GI50 [5]: > 100 µM (inactive)
GI50 [6]: > 100 µM (inactive)
GI50 [7]: > 100 µM (inactive)
GI50 [8]: > 100 µM (inactive)
GI50 [9]: > 100 µM (inactive)
GI50 [19]: > 100 µM (inactive)
GI50 [10]: > 100 µM (inactive)
GI50 [11]: > 100 µM (inactive)
GI50 [12]: > 100 µM (inactive)
GI50 [13]: > 100 µM (inactive)
GI50 [15]: > 100 µM (inactive)
GI50 [16]: > 100 µM (inactive)
GI50 [17]: > 100 µM (inactive)
GI50 [18]: > 100 µM (inactive)

CC(C)CC1c2[nH]c3ccccc3c2C[C@H]2C(=O)NC(COC(C)(C)C)C(=O)N12 (some centres undefined)
GI50 [1]: 20.9 µM (inactive)
GI50 [2]: 23.6 µM (inactive)
GI50 [20]: 30.3 µM (inactive)
GI50 [3]: 23.3 µM (inactive)
GI50 [4]: 46.2 µM (inactive)
GI50 [6]: 20.4 µM (inactive)
GI50 [7]: 21.8 µM (inactive)
GI50 [8]: 20.8 µM (inactive)
GI50 [9]: 31 µM (inactive)
GI50 [19]: 3.05 µM (inactive)
GI50 [10]: 23 µM (inactive)
GI50 [11]: 22.2 µM (inactive)
GI50 [13]: 23.6 µM (inactive)
GI50 [14]: 33.2 µM (inactive)
GI50 [15]: 31.9 µM (inactive)
GI50 [16]: 22 µM (inactive)
GI50 [18]: 21.2 µM (inactive)

O=C1/C(=C/c2ccccc2S)N=C(c2ccccc2)N1c1ccc2c(c1)Sc1cc(N3C(=O)/C(=C/c4ccccc4S)N=C3c3ccccc3)ccc1N2
GI50 [1]: 34.4 µM (inactive)
GI50 [2]: 19.5 µM (inactive)
GI50 [20]: 19.1 µM (inactive)
GI50 [3]: 15.7 µM (inactive)
GI50 [4]: 25.6 µM (inactive)
GI50 [5]: 11.8 µM (inactive)
GI50 [6]: 31.4 µM (inactive)
GI50 [7]: 17 µM (inactive)
GI50 [8]: 17.9 µM (inactive)
GI50 [9]: 19.8 µM (inactive)
GI50 [19]: 18.8 µM (inactive)
GI50 [10]: 17.4 µM (inactive)
GI50 [11]: 19.6 µM (inactive)
GI50 [12]: 15.2 µM (inactive)
GI50 [13]: 26.7 µM (inactive)
GI50 [15]: 17.4 µM (inactive)
GI50 [16]: 21.4 µM (inactive)
GI50 [17]: 23.7 µM (inactive)
GI50 [18]: 19.2 µM (inactive)

CCOC(=O)c1ccc(-n2nnc(C(N)=O)c2O)cc1
GI50 [1]: > 100 µM (inactive)
GI50 [2]: > 100 µM (inactive)
GI50 [3]: > 100 µM (inactive)
GI50 [4]: > 100 µM (inactive)
GI50 [6]: > 100 µM (inactive)
GI50 [7]: > 100 µM (inactive)
GI50 [8]: > 100 µM (inactive)
GI50 [9]: > 100 µM (inactive)
GI50 [19]: > 100 µM (inactive)
GI50 [10]: > 100 µM (inactive)
GI50 [11]: > 100 µM (inactive)
GI50 [12]: > 100 µM (inactive)
GI50 [13]: > 100 µM (inactive)
GI50 [14]: > 100 µM (inactive)
GI50 [15]: > 100 µM (inactive)
GI50 [16]: > 100 µM (inactive)
GI50 [17]: > 100 µM (inactive)
GI50 [18]: > 100 µM (inactive)
